Experimental data from ChEMBL document CHEMBL1201862, “PubChem BioAssay data set” (2004).
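Results reflect a 48-hour exposure of cells in 96-well plates to compound at five concentrations. Here, GI50 denotes the concentration required for 50% inhibition of growth.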 The source made the active and inactive calls. No stated cut-off is given here; in the data, active = GI50 up to about 1.1 µM and inactive = higher.

How the values were obtained:
Assay in all cases: NCI anticancer screen, dose series, 48 h
KM12 = system: KM12
UO-31 = system: UO-31
HT-29 = system: HT-29
HCC 2998 = system: HCC 2998
K562 = system: K562
SK-MEL-28 = system: SK-MEL-28
SK-MEL-5 = system: SK-MEL-5
SF-268 = system: SF-268
MDA-MB-231 = system: MDA-MB-231
IGROV-1 = system: IGROV-1
A549 = system: A549
HCT-116 = system: HCT-116
NCI-H23 = system: NCI-H23
EKVX = system: EKVX
SNB-19 = system: SNB-19
HOP-92 = system: HOP-92
OVCAR-5 = system: OVCAR-5
U-251 = system: U-251
NCI-H460 = system: NCI-H460
DMS-114 = system: DMS-114

Measured: GI50

Brc1ccc2c(-c3nc(-c4c[nH]c5ccccc45)cs3)c[nH]c2c1
inactive: KM12 10 µM | UO-31 19.5 µM | HT-29 38.6 µM | HCC 2998 24 µM | K562 13.1 µM | SK-MEL-28 > 27.8 µM | SK-MEL-5 22.1 µM | SF-268 > 56.8 µM | MDA-MB-231 47.1 µM | IGROV-1 30.5 µM | A549 9.59 µM | HCT-116 23.8 µM | NCI-H23 24.9 µM | EKVX 12.7 µM | SNB-19 41.9 µM | HOP-92 43.1 µM | OVCAR-5 31.9 µM | U-251 35.2 µM | NCI-H460 11.8 µM

O=c1cc(O)cc2n1CCC2
inactive: KM12 > 100 µM | DMS-114 > 100 µM | UO-31 > 100 µM | HT-29 > 100 µM | HCC 2998 > 100 µM | K562 > 100 µM | SK-MEL-5 > 100 µM | SF-268 > 100 µM | IGROV-1 > 100 µM | A549 > 100 µM | HCT-116 > 100 µM | EKVX > 100 µM | SNB-19 > 100 µM | OVCAR-5 > 100 µM | U-251 > 100 µM | NCI-H460 > 100 µM

COc1ccc(/C(=N\NC(=O)C(=O)NN)C(c2ccc(OC)cc2)C2(O)C(=O)Nc3ccccc32)cc1 (stereo not given)
inactive: KM12 > 100 µM | DMS-114 64.3 µM | UO-31 27.6 µM | HT-29 14.5 µM | K562 26.7 µM | SK-MEL-28 > 100 µM | SK-MEL-5 22.4 µM | SF-268 55.2 µM | IGROV-1 > 100 µM | A549 62.4 µM | HCT-116 > 100 µM | NCI-H23 89.5 µM | EKVX > 100 µM | SNB-19 53.3 µM | HOP-92 97.1 µM | OVCAR-5 > 100 µM | U-251 > 100 µM | NCI-H460 60.3 µM

N#CCCN(c1ccc(C=O)cc1)S(=O)(=O)c1ccccc1
inactive: KM12 > 100 µM | DMS-114 > 100 µM | UO-31 > 100 µM | HT-29 > 100 µM | HCC 2998 > 100 µM | K562 > 100 µM | SK-MEL-28 > 100 µM | SK-MEL-5 > 100 µM | SF-268 > 100 µM | IGROV-1 > 100 µM | A549 > 100 µM | HCT-116 > 100 µM | EKVX > 100 µM | SNB-19 > 100 µM | OVCAR-5 > 100 µM | U-251 > 100 µM | NCI-H460 > 100 µM

CCN(CC)CCn1c2c3ccccc3ccc2c2oc(=O)c3ccccc3c21
inactive: KM12 > 100 µM | DMS-114 > 100 µM | UO-31 > 100 µM | HT-29 > 100 µM | K562 > 100 µM | SK-MEL-28 > 100 µM | SF-268 82.2 µM | IGROV-1 68.1 µM | A549 > 100 µM | HCT-116 88.5 µM | NCI-H23 > 100 µM | EKVX > 100 µM | SNB-19 80 µM | HOP-92 83.6 µM | OVCAR-5 > 100 µM | U-251 57 µM | NCI-H460 13.7 µM

Cc1cc(O)nc(CNC(=O)Cc2ccccc2)n1
inactive: KM12 > 100 µM | DMS-114 > 100 µM | UO-31 > 100 µM | HT-29 > 100 µM | HCC 2998 > 100 µM | K562 > 100 µM | SK-MEL-28 > 100 µM | SF-268 > 100 µM | IGROV-1 > 100 µM | A549 > 100 µM | NCI-H23 > 100 µM | EKVX > 100 µM | SNB-19 > 100 µM | HOP-92 > 100 µM | OVCAR-5 > 100 µM | NCI-H460 > 100 µM

O=C(NN=C1NCCN1)c1ccco1
inactive: KM12 > 100 µM | UO-31 > 100 µM | HT-29 > 100 µM | HCC 2998 > 100 µM | K562 > 100 µM | SK-MEL-28 > 100 µM | SK-MEL-5 > 100 µM | SF-268 > 100 µM | MDA-MB-231 > 100 µM | IGROV-1 > 100 µM | A549 > 100 µM | HCT-116 > 100 µM | NCI-H23 > 100 µM | EKVX > 100 µM | SNB-19 > 100 µM | HOP-92 > 100 µM | OVCAR-5 > 100 µM | U-251 > 100 µM | NCI-H460 > 100 µM

O=C(N/N=C/c1cccc(O)c1O)N/N=C/c1cccc(O)c1O
inactive: KM12 26.5 µM | DMS-114 > 100 µM | UO-31 6.52 µM | HT-29 44.8 µM | K562 6.97 µM | SK-MEL-28 20.1 µM | SF-268 5.93 µM | IGROV-1 48.1 µM | A549 35.9 µM | HCT-116 5.02 µM | NCI-H23 25.2 µM | EKVX 20.5 µM | SNB-19 30.2 µM | HOP-92 17.4 µM | OVCAR-5 22.2 µM | U-251 12.3 µM | NCI-H460 30.1 µM

CC1OC1P(=O)(O)O (stereo not given)
inactive: KM12 > 100 µM | UO-31 > 100 µM | HT-29 > 100 µM | HCC 2998 > 100 µM | K562 > 100 µM | SK-MEL-28 > 100 µM | SK-MEL-5 > 100 µM | SF-268 > 100 µM | MDA-MB-231 > 100 µM | IGROV-1 > 100 µM | A549 > 100 µM | HCT-116 > 100 µM | NCI-H23 > 100 µM | EKVX > 100 µM | SNB-19 > 100 µM | HOP-92 > 100 µM | OVCAR-5 26.3 µM | U-251 > 100 µM | NCI-H460 > 100 µM

Cc1c(O)c(OC2OC(CO)C(O)C(O)C2O)cc2c1CC[C@@H]1C2(C)C(=O)C[C@]2(C)[C@@H]([C@@](C)(O)C(=O)CCC(C)(C)O)[C@H](O)C[C@@]12C (stereo not given in full)
inactive: KM12 > 100 µM | UO-31 > 100 µM | HT-29 > 100 µM | HCC 2998 > 100 µM | K562 > 100 µM | SK-MEL-28 > 100 µM | SK-MEL-5 > 100 µM | SF-268 > 100 µM | MDA-MB-231 > 100 µM | IGROV-1 > 100 µM | A549 > 100 µM | HCT-116 > 100 µM | NCI-H23 > 100 µM | EKVX > 100 µM | SNB-19 > 100 µM | HOP-92 > 100 µM | OVCAR-5 > 100 µM | U-251 > 100 µM | NCI-H460 > 100 µM

COc1ccc(C2Cc3cc(OC)c(OC)c(OC)c3C2=O)cc1 (stereo not given)
inactive: KM12 > 100 µM | DMS-114 76.6 µM | UO-31 41.8 µM | HT-29 > 100 µM | HCC 2998 > 100 µM | K562 80 µM | SK-MEL-28 > 100 µM | SK-MEL-5 75.3 µM | SF-268 > 100 µM | IGROV-1 > 100 µM | A549 > 100 µM | HCT-116 > 100 µM | NCI-H23 87.9 µM | EKVX > 100 µM | SNB-19 > 100 µM | OVCAR-5 > 100 µM | U-251 > 100 µM | NCI-H460 > 100 µM
